# Laboratory results as given in PubChem BioAssay (NCI).
#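 Five compound concentrations were applied to cells in 96-well plates for 48 hours; endpoints were derived by simple linear interpolation of the resulting dose-response curve. TGI marks complete inhibition of growth.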
# Tests used:
# Assay in all cases: DTP human tumour cell line panel, 48 h
# [1] = system: A498 renal
# [2] = system: SN12C renal
# [3] = system: SNB-19 CNS
# [4] = system: MDA-MB-435
# [5] = system: OVCAR-3 ovarian
# [6] = system: MALME-3M melanoma
# [7] = system: TK-10 renal
# [8] = system: HOP-92 NSCLC
# [9] = system: NCI-H460 lung
# [10] = system: UO-31 renal
# [11] = system: MDA-MB-231 breast
# [12] = system: MOLT-4 leukemia
# [13] = system: M14 melanoma
# [14] = system: U251 CNS
# [15] = system: K-562 leukemia
# [16] = system: NCI-H522 lung
# [17] = system: NCI-H226 lung
# [18] = system: EKVX NSCLC
# [19] = system: OVCAR-4 ovarian
# [20] = system: SF-539 CNS
# [21] = system: HL-60(TB) leukemia
# [22] = system: SF-268 CNS
# [23] = system: HCT-15 colon
# [24] = system: SR leukemia
# [25] = system: HT29 colon
# [26] = system: SK-MEL-2 melanoma
# [27] = system: HOP-62 NSCLC
# [28] = system: SK-OV-3 ovarian
# [29] = system: SW-620 colon
# [30] = system: HS 578T breast
# [31] = system: T-47D breast
# [32] = system: MCF7 breast
# [33] = system: SK-MEL-28 melanoma
# [34] = system: DU-145 prostate
# [35] = system: IGROV1 ovarian
# [36] = system: ACHN renal
# [37] = system: OVCAR-8 ovarian
# [38] = system: HCT-116 colon
# [39] = system: NCI/ADR-RES ovarian
# [40] = system: RXF 393 renal
# [41] = system: 786-0 renal
# [42] = system: SNB-75 CNS
# [43] = system: A549 NSCLC
# [44] = system: BT-549 breast
# [45] = system: LOX IMVI melanoma
# [46] = system: NCI-H23 lung
# [47] = system: RPMI-8226 leukemia
# [48] = system: OVCAR-5 ovarian
# [49] = system: COLO 205 colon
# [50] = system: CAKI-1 renal
# [51] = system: PC-3 prostate
# [52] = system: SF-295 CNS
# [53] = system: UACC-62 melanoma
# [54] = system: MDA-N
# [55] = system: KM12 colon
# [56] = system: SK-MEL-5 melanoma
# [57] = system: UACC-257 melanoma
smiles,measurement,setting,value
Clc1cccc(Cl)c1C(Nc1nncs1)Nc1nncs1,TGI,[1],> 100 µM
same,TGI,[2],> 100 µM
same,TGI,[3],> 100 µM
same,TGI,[4],60.6 µM
same,TGI,[5],> 100 µM
same,TGI,[6],> 100 µM
same,TGI,[7],84.1 µM
same,TGI,[8],> 100 µM
same,TGI,[9],68.5 µM
same,TGI,[10],> 100 µM
same,TGI,[11],> 100 µM
same,TGI,[12],> 100 µM
same,TGI,[13],> 100 µM
same,TGI,[14],> 100 µM
same,TGI,[15],> 100 µM
same,TGI,[16],70.9 µM
same,TGI,[17],99.7 µM
same,TGI,[18],> 100 µM
same,TGI,[19],> 100 µM
same,TGI,[20],> 100 µM
same,TGI,[21],43.9 µM
same,TGI,[22],> 100 µM
same,TGI,[23],> 100 µM
same,TGI,[24],> 100 µM
same,TGI,[25],> 100 µM
same,TGI,[26],> 100 µM
same,TGI,[27],> 100 µM
same,TGI,[28],> 100 µM
same,TGI,[29],> 100 µM
same,TGI,[30],> 100 µM
same,TGI,[31],> 100 µM
same,TGI,[32],> 100 µM
same,TGI,[33],54.5 µM
same,TGI,[34],> 100 µM
same,TGI,[35],> 100 µM
same,TGI,[36],> 100 µM
same,TGI,[37],> 100 µM
same,TGI,[38],> 100 µM
same,TGI,[39],> 100 µM
same,TGI,[40],> 100 µM
same,TGI,[41],> 100 µM
same,TGI,[42],> 100 µM
same,TGI,[43],> 100 µM
same,TGI,[44],> 100 µM
same,TGI,[45],> 100 µM
same,TGI,[46],> 100 µM
same,TGI,[47],> 100 µM
same,TGI,[48],> 100 µM
same,TGI,[49],> 100 µM
same,TGI,[50],> 100 µM
same,TGI,[51],> 100 µM
same,TGI,[52],> 100 µM
same,TGI,[53],> 100 µM
same,TGI,[54],25.5 µM
same,TGI,[55],> 100 µM
same,TGI,[56],> 100 µM
same,TGI,[57],71.1 µM
